According to ChEMBL document CHEMBL5291721, “A preclinical secondary pharmacology resource illuminates target-adverse drug reaction associations of marketed drugs” (Nat Commun, 2023):

Key:
[1] = biological target: T1, 5-hydroxytryptamine receptor 1A (Homo sapiens, UniProt P08908); assay type: functional, cell-based
T1 sequence (P08908 whole entry): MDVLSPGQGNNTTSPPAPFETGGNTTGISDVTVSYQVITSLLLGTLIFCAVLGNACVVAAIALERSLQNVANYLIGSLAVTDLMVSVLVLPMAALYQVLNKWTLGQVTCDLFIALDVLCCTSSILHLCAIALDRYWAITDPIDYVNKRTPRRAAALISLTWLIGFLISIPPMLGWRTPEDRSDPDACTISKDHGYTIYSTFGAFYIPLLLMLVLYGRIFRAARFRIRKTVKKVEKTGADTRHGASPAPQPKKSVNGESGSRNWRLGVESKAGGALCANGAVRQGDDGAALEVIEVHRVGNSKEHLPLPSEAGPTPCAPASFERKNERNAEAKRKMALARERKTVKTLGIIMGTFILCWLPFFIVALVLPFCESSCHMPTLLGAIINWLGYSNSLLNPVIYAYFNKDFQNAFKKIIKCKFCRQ

[2] = biological target: Kappa-type opioid receptor (Homo sapiens, UniProt P41145)
Sequence of Kappa-type opioid receptor (P41145 whole entry): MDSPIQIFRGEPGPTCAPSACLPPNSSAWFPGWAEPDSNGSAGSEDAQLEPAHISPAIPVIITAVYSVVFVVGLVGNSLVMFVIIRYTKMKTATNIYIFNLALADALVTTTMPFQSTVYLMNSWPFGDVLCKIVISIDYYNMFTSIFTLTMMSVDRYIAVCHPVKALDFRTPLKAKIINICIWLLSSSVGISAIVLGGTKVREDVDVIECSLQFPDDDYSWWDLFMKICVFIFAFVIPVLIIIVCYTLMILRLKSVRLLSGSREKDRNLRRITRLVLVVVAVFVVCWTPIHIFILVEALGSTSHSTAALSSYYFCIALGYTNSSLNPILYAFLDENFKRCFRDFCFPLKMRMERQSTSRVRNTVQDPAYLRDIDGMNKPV

[3] = biological target: T2, Equilibrative nucleoside transporter 1 (Homo sapiens, UniProt Q99808)
T2 sequence (Q99808 whole entry): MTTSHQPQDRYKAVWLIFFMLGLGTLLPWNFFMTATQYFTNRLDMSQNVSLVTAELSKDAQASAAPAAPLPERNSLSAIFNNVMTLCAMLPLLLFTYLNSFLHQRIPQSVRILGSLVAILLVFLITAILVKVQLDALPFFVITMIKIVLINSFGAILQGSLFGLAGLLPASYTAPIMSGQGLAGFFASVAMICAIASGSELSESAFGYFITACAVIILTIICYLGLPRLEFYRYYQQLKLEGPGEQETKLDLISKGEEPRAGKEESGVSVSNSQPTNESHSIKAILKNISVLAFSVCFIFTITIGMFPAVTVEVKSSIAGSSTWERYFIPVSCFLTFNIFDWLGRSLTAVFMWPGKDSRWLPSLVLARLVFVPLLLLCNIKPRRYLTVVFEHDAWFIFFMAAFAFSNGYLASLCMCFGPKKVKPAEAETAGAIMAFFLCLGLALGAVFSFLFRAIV

[4] = biological target: T3, Type-1 angiotensin II receptor (Homo sapiens, UniProt P30556)
T3 sequence (P30556 whole entry): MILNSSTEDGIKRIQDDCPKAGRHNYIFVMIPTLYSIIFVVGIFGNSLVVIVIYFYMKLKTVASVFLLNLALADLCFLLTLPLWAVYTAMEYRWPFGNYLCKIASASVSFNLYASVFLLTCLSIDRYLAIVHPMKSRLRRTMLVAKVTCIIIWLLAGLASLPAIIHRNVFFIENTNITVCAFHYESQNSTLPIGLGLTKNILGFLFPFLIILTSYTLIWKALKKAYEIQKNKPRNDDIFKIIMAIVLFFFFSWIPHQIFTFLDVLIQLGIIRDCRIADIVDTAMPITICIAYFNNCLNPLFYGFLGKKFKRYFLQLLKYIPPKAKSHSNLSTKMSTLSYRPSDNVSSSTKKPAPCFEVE

[5] = biological target: D(3) dopamine receptor (Homo sapiens, UniProt P35462)
Sequence of D(3) dopamine receptor (P35462 whole entry): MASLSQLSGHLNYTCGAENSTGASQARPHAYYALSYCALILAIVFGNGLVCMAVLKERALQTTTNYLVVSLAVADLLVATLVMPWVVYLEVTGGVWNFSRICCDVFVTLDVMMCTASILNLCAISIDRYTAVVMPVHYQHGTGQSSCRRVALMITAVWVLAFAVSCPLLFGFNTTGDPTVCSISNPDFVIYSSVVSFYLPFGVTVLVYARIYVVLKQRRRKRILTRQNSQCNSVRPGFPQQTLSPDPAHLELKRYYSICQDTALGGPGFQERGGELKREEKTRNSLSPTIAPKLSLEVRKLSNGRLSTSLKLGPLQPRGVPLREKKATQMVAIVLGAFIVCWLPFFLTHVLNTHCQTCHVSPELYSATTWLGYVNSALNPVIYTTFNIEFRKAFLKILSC

[6] = biological target: Adenosine receptor A2a (Homo sapiens, UniProt P29274)
Sequence of Adenosine receptor A2a (P29274 whole entry): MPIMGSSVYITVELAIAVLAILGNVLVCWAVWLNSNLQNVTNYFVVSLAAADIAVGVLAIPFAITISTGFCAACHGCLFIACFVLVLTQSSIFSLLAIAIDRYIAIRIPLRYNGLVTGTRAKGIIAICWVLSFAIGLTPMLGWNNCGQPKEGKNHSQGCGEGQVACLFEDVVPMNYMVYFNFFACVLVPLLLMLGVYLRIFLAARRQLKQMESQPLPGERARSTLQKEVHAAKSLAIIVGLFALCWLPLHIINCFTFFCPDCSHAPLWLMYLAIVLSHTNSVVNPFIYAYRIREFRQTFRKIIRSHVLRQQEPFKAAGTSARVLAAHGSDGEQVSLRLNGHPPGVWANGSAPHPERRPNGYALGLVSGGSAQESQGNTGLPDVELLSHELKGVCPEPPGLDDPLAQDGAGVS

[7] = biological target: T4, 5-hydroxytryptamine receptor 3A (Homo sapiens, UniProt P46098); assay type: functional
T4 sequence (P46098 whole entry): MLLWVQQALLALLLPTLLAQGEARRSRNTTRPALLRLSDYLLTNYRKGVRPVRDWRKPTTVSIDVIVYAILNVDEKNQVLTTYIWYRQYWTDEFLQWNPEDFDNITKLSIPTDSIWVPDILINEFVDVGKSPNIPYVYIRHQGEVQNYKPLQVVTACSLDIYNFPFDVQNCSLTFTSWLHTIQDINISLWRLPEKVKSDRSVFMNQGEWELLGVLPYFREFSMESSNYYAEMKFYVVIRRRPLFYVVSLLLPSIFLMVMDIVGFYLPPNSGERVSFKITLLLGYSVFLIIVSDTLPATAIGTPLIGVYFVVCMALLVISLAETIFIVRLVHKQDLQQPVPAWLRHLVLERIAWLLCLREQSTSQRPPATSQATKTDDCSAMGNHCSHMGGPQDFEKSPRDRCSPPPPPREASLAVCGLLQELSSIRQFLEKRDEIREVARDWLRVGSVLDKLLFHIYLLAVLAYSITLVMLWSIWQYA

[8] = biological target: Beta-1 adrenergic receptor (Homo sapiens, UniProt P08588); assay type: functional
Sequence of Beta-1 adrenergic receptor (P08588 whole entry): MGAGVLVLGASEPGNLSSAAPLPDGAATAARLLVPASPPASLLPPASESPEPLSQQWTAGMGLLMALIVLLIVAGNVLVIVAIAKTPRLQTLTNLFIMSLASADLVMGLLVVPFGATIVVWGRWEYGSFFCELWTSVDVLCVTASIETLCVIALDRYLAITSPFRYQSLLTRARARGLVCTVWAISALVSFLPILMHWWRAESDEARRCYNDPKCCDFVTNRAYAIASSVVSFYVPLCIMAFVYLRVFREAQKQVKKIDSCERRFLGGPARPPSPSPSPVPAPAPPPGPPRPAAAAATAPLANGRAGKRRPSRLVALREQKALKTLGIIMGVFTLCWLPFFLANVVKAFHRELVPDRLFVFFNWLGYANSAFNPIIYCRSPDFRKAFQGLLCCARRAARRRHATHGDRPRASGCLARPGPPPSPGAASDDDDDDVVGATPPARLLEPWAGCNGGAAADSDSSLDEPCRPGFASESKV

[9] = biological target: Gamma-aminobutyric acid receptor subunit alpha-1 (Rattus norvegicus, UniProt P62813)
Sequence of Gamma-aminobutyric acid receptor subunit alpha-1 (P62813 whole entry): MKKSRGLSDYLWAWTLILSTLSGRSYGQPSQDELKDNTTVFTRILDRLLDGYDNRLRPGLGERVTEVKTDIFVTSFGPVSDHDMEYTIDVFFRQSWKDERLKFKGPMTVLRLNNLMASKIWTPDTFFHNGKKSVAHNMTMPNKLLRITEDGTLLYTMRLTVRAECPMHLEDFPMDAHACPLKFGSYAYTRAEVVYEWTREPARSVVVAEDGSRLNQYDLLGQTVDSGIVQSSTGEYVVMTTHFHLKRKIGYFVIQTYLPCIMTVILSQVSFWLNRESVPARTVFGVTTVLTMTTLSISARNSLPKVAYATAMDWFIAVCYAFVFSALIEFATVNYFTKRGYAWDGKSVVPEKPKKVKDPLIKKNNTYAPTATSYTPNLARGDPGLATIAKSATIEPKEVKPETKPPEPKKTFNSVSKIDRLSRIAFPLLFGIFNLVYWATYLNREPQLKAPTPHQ

[10] = biological target: T5, Progesterone receptor (Homo sapiens, UniProt P06401); assay type: functional
T5 sequence (P06401 whole entry): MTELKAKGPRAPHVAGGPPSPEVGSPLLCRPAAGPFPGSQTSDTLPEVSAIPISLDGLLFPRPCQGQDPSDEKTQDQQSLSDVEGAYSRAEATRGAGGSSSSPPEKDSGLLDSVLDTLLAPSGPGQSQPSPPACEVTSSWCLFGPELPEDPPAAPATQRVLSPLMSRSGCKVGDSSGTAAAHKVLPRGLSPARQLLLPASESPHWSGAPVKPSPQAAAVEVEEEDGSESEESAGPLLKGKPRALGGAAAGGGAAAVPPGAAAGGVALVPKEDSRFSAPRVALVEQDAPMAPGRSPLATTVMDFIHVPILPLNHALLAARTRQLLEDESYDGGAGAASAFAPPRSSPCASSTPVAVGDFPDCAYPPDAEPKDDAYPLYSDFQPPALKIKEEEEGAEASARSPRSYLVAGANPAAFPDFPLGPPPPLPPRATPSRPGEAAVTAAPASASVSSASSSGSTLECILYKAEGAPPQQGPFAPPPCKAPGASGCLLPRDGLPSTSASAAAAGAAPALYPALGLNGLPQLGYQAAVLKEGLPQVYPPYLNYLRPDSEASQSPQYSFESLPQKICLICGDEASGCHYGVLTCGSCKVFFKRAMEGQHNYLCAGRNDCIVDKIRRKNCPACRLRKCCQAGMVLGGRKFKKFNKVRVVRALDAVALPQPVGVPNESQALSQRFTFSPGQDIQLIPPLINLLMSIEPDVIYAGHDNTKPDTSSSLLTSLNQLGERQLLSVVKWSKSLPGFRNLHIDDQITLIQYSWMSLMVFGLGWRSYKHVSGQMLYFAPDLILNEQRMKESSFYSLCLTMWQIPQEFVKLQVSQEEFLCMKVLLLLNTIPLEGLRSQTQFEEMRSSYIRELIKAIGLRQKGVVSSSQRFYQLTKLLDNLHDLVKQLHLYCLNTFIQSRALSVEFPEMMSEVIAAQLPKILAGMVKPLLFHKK
Further: assay procedure not described here.

Row | Compound | AC50 [1] [µM] | AC50 [2] [µM] | AC50 [3] [µM] | AC50 [4] [µM] | AC50 [5] [µM] | AC50 [6] [µM] | AC50 [7] [µM] | AC50 [8] [µM] | AC50 [9] [µM] | AC50 [10] [µM]
1 | O=C(CCCN1CCC(O)(c2ccc(Br)cc2)CC1)c1ccc(F)cc1 [BROMPERIDOL] | > 30 | 10 | > 30 | > 30 | 0.041 | > 30 | > 30 | > 30 | > 30 | > 30
2 | Clc1ccc(CCC(Cn2ccnc2)Sc2c(Cl)cccc2Cl)cc1 (stereo not given) [BUTOCONAZOLE] | > 30 | 1.8 | > 30 | 30 | > 30 | > 30 | > 30 | > 30 | > 30 | > 30
3 | CC(CN(C)C)C(C)(O)Cc1ccc(Cl)cc1 (stereo not given) [CLOBUTINOL] | > 10 | > 10 | > 30 | > 30 | > 30 | > 30 | > 30 | > 30 | > 10 | > 30
4 | C[C@@H]1C[C@H]2[C@@H]3CCC4=CC(=O)C=C[C@]4(C)[C@@]3(F)[C@@H](O)C[C@]2(C)[C@@]1(O)C(=O)CO [DEXAMETHASONE] | > 10 | > 10 | > 30 | > 30 | > 30 | > 30 | > 30 | > 30 | > 10 | 0.2
5 | CC(C)[C@@H](C)/C=C/[C@@H](C)[C@H]1CC[C@H]2/C(=C/C=C3\C[C@@H](O)CC[C@@H]3C)CCC[C@]12C [DIHYDROTACHYSTEROL] | > 10 | > 10 | > 10 | > 10 | > 30 | > 10 | > 30 | > 10 | > 10 | > 30
6 | Oc1ccc(CCNCCCCCCNCCc2ccccc2)cc1O [DOPEXAMINE] | > 30 | 4.3 | > 30 | > 30 | 0.16 | > 30 | > 30 | > 30 | > 30 | > 30
7 | CCN1CC(CCN2CCOCC2)C(c2ccccc2)(c2ccccc2)C1=O (stereo not given) [DOXAPRAM] | > 30 | > 30 | > 30 | > 30 | > 30 | > 30 | > 30 | > 30 | > 30 | > 30
8 | CC/C=C\C/C=C\C/C=C\C/C=C\C/C=C\CCCC(=O)OCC [ICOSAPENT ETHYL] | > 30 | > 30 | > 30 | > 30 | > 30 | > 30 | > 30 | > 30 | > 30 | > 30
9 | NNC(=O)c1ccncc1 [ISONIAZID] | > 30 | > 30 | > 30 | > 30 | > 30 | > 30 | > 30 | > 30 | > 30 | > 30
10 | COc1ccc(CN2CCN(C(c3ccc(F)cc3)c3ccc(F)cc3)CC2)c(OC)c1OC [LOMERIZINE] | > 30 | 12 | > 30 | > 30 | 2.2 | > 30 | > 30 | > 30 | > 30 | > 30
11 | CC(=O)[C@H]1CC[C@H]2[C@@H]3C[C@H](C)C4=CC(=O)CC[C@]4(C)[C@H]3[C@@H](O)C[C@]12C [MEDRYSONE] | > 10 | > 10 | > 10 | > 10 | > 30 | > 10 | > 30 | > 10 | > 10 | 0.0027
12 | CCCC(C)(COC(N)=O)COC(N)=O [MEPROBAMATE] | > 10 | > 10 | > 10 | > 10 | > 30 | > 10 | > 30 | > 10 | > 10 | > 10
13 | COc1ccc2cc(CCC(C)=O)ccc2c1 [NABUMETONE] | > 10 | > 10 | > 30 | > 10 | > 30 | > 10 | > 30 | > 10 | > 10 | > 10
14 | O=C(NCCO[N+](=O)[O-])c1cccnc1 [NICORANDIL] | > 30 | > 30 | > 30 | > 30 | > 30 | > 30 | > 30 | > 30 | > 30 | > 30
15 | O=C(c1cc(Cc2n[nH]c(=O)c3ccccc23)ccc1F)N1CCN(C(=O)C2CC2)CC1 [OLAPARIB] | > 10 | > 10 | > 30 | > 30 | > 30 | > 30 | > 30 | > 30 | > 10 | > 30
16 | COc1cc2[nH]c(C)c(CCN3CCN(c4ccccc4)CC3)c2cc1OC [OXYPERTINE] | > 30 | > 30 | > 30 | > 30 | > 10 | > 30 | > 30 | 26 | > 30 | > 30
